Experimental data reported in article PMC4434464 (ACS Medicinal Chemistry Letters, 2015).
Several values for one entry are separate records, joined by “and”; a condition that tells them apart may be missing. Equal entries are not always repeated. Entries after “also recorded” stand apart in the source; their conditions may differ.

Legend:
[1] = plasma protein binding, equilibrium dialysis, mouse; format: in vitro ADME
[2] = liver microsome clearance, mouse; format: in vitro ADME; details: mouse liver microsomes
[3] = test system: subcutaneous EZH2 mutant KARPAS-422 human DLBCL xenografts; assay: KARPAS-422 xenograft antitumor activity; format: in vivo, SCID mice; details: 250 and 500 mg/kg BID orally, 21 days
[4] = liver microsome clearance, human; format: in vitro ADME; details: human liver microsomes
[5] = single dose oral PK in SCID mice; format: in vivo
[6] = test system: H3K27me3 in WSU-DLCL2 cells; assay: ELISA of cellular H3K27me3 methyl mark reduction; details: read-out: ELISA H3K27me3 IC50; WSU-DLCL2 (Y641F mutant-bearing) cells; n = 20
WSU-DLCL2 cells [7] = assay: predicted efficacious plasma exposure; details: human; plasma protein binding corrected LCC
[8] = plasma exposure in the KARPAS-422 xenograft study; format: in vivo, SCID mice; details: 250 mg/kg BID, D-tartrate salt, day 7
[9] = test system: H3K27 methylation in bone marrow; assay: 7-day BID PD, H3K27 methylation in bone marrow; format: in vivo, mouse; details: 500 mg/kg BID, end of day 7
[10] = plasma protein binding, equilibrium dialysis, human; format: in vitro ADME
WSU-DLCL2 cells [11] = assay: 11-day proliferation assay, LCC; details: n = 4
[12] = 7-day BID PK study, plasma exposure and tolerability; format: in vivo, mouse
[13] = rat oral PK of D-tartrate salt; format: in vivo; details: for time above LCC: p.o., D-tartrate salt; for AUC(0-inf) / Cmax / Tmax: plasma, po
[14] = liver microsome clearance, rat; format: in vitro ADME; details: rat liver microsomes
[15] = plasma protein binding, equilibrium dialysis, rat; format: in vitro ADME
[16] = test system: H3K27 methyl mark in tumor tissue; assay: PD in KARPAS-422 tumor samples, H3K27 methyl mark; format: in vivo, SCID mice; details: day 7, 250 and 500 mg/kg, over the 12 h time-course

SMILES: CCN(c1cc(C#CCN2CCOCC2)cc(C(=O)NCc2c(C)cc(C)[nH]c2=O)c1C)[C@H]1CC[C@H](N(C)CCOC)CC1 [EPZ011989, N-((4,6-Dimethyl-2-oxo-1,2-dihydropyridin-3-yl)methyl)-3-(ethyl((trans)-4-((2-methoxyethyl)(methyl)amino)cyclohexyl)amino)-2-methyl-5-(3-morpholinoprop-1-yn-1-yl)benzamide]
- fraction unbound [1]: 0.8 ± 0.11
- percent hepatic extraction (%Eh) [2]: < 11%
- effect on mean body weights [3]: nominal effect on mean body weights
- antitumor activity ([3]; D-tartrate salt, SCID mice): significant tumor regression at both doses; also recorded: Robust tumor growth inhibition
- percent hepatic extraction (%Eh) [4]: 29%
- coverage over the LCC (time) ([5]; single oral dose 250 mg/kg): approximately 8 h
- coverage over the LCC (time) ([5]; single oral dose 500 mg/kg): approximately 8 h
- IC50 [6]: 94 ± 48 nM
- predicted efficacious plasma exposure (WSU-DLCL2 cells [7]): 214 nM and 130 ng/mL
- time over the predicted efficacious plasma levels [8]: ≥ 6 h
- H3K27 methyl mark in bone marrow [9]: complete ablation of the methyl mark
- fraction unbound [10]: 0.97 ± 0.03
- LCC (lowest cytotoxic concentration), 11d proliferation WSU-DLCL2 (WSU-DLCL2 cells [11]): 208 nM and 208 ± 75 (n = 4) nM
- dose that achieves complete coverage over the predicted efficacious plasma level ([12]; 7-day BID study): 500 mg/kg BID
- tolerability ([12]; 125, 250, 500, 750 and 1000 mg/kg BID, 7 days): well tolerated
- time above LCC ([13]; 30 mg/kg): 4 h
- time above LCC ([13]; 100 mg/kg): 8 h
- AUC(0-inf) ([13]; 30 mg/kg): 970 ng·h/mL
- Cmax ([13]; 30 mg/kg): 240 ng/mL
- Tmax ([13]; 30 mg/kg): 2 h
- AUC(0-inf) ([13]; 100 mg/kg): 5600 ng·h/mL
- Cmax ([13]; 100 mg/kg): 1600 ng/mL
- Tmax ([13]; 100 mg/kg): 2.7 h
- AUC(0-inf) ([13]; 300 mg/kg): 10000 ng·h/mL
- Cmax ([13]; 300 mg/kg): 2900 ng/mL
- Tmax ([13]; 300 mg/kg): 2.7 h
- percent hepatic extraction (%Eh) [14]: < 14%
- fraction unbound [15]: 0.91 ± 0.06
- H3K27 methyl mark in tumor samples [16]: robust H3K27 methyl mark reduction
